Reference: PubChem BioAssay AID1918933 (Molecular Pharmacology Branch, DTP, NCI, 2023)

System: 186277-243-T-J2-PDC complex spheroid viability
Assay: Anticancer human tumor 186277-243-T-J2-PDC patient-derived colon adenocarcinoma cell line growth inhibition
Conditions: for IC50: curve of first compound; for viability, T/C: stronger effect = lower value
Procedure, shortened: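 Drug combinations with the LSD1 inhibitor iadademstat tested on tumor cells co-cultured as spheroids with endothelial cells and mesenchymal stem cells. Concentrations descended in half-log increments from clinical Cmax or 10 microM.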

[1] = second compound 0.1 µM, first compound 0.0316 µM
[2] = second compound 0.1 µM, first compound 0.1 µM
[3] = second compound 0.316 µM, first compound 0.0316 µM
[4] = second compound 0.316 µM, first compound 0.1 µM
[5] = second compound 1 µM, first compound 0.0316 µM
[6] = second compound 1 µM, first compound 0.1 µM
[7] = second compound 3.16 µM, first compound 0.0316 µM
[8] = second compound 3.16 µM, first compound 0.1 µM
[9] = second compound 10 µM, first compound 0.0316 µM
[10] = second compound 10 µM, first compound 0.1 µM
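Note: 7 day exposure to compounds.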
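Throughout, for viability, T/C: 100% = DMSO vehicle control viability.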

CC1(C)CCC(CN2CCN(c3ccc(C(=O)NS(=O)(=O)c4ccc(NCC5CCOCC5)c([N+](=O)[O-])c4)c(Oc4cnc5[nH]ccc5c4)c3)CC2)=C(c2ccc(Cl)cc2)C1 + NC1CC1c1ccc(-c2cccc(O)c2)cc1
IC50 (second compound 0.1 µM): 2230 nM
IC50 (second compound 0.316 µM): 2260 nM
IC50 (second compound 1 µM): 2240 nM
IC50 (second compound 3.16 µM): 2410 nM
IC50 (second compound 10 µM): 2150 nM
viability, T/C [1]: 106%
viability, T/C [2]: 101%
viability, T/C (second compound 0.1 µM, first compound 0.316 µM): 117%
viability, T/C (second compound 0.1 µM, first compound 1 µM): 99.1%
viability, T/C (second compound 0.1 µM, first compound 3.16 µM): 28.4%
viability, T/C (second compound 0.1 µM, first compound 10 µM): 0.17%
viability, T/C [3]: 98.2%
viability, T/C [4]: 97.4%
viability, T/C (second compound 0.316 µM, first compound 0.316 µM): 108%
viability, T/C (second compound 0.316 µM, first compound 1 µM): 98.8%
viability, T/C (second compound 0.316 µM, first compound 3.16 µM): 29.9%
viability, T/C (second compound 0.316 µM, first compound 10 µM): 0.15%
viability, T/C [5]: 102%
viability, T/C [6]: 106%
viability, T/C (second compound 1 µM, first compound 0.316 µM): 98.5%
viability, T/C (second compound 1 µM, first compound 1 µM): 91.3%
viability, T/C (second compound 1 µM, first compound 3.16 µM): 32.6%
viability, T/C (second compound 1 µM, first compound 10 µM): 0.14%
viability, T/C [7]: 106%
viability, T/C [8]: 101%
viability, T/C (second compound 3.16 µM, first compound 0.316 µM): 107%
viability, T/C (second compound 3.16 µM, first compound 1 µM): 94.4%
viability, T/C (second compound 3.16 µM, first compound 3.16 µM): 36.4%
viability, T/C (second compound 3.16 µM, first compound 10 µM): 0.15%
viability, T/C [9]: 107%
viability, T/C [10]: 107%
viability, T/C (second compound 10 µM, first compound 0.316 µM): 101%
viability, T/C (second compound 10 µM, first compound 1 µM): 99.7%
viability, T/C (second compound 10 µM, first compound 3.16 µM): 25%
viability, T/C (second compound 10 µM, first compound 10 µM): 0.2%

Cn1ncnc1C1c2n[nH]c(=O)c3cc(F)cc(c23)NC1c1ccc(F)cc1 (stereo not given) + NC1CC1c1ccc(-c2cccc(O)c2)cc1
IC50 (second compound 0.1 µM): > 100 nM
IC50 (second compound 0.316 µM): > 100 nM
IC50 (second compound 1 µM): > 100 nM
IC50 (second compound 3.16 µM): > 100 nM
IC50 (second compound 10 µM): > 100 nM
viability, T/C (second compound 0.1 µM, first compound 0.000316 µM): 110%
viability, T/C (second compound 0.1 µM, first compound 0.001 µM): 109%
viability, T/C (second compound 0.1 µM, first compound 0.00316 µM): 112%
viability, T/C (second compound 0.1 µM, first compound 0.01 µM): 110%
viability, T/C [1]: 106%
viability, T/C [2]: 115%
viability, T/C (second compound 0.316 µM, first compound 0.000316 µM): 113%
viability, T/C (second compound 0.316 µM, first compound 0.001 µM): 110%
viability, T/C (second compound 0.316 µM, first compound 0.00316 µM): 93.8%
viability, T/C (second compound 0.316 µM, first compound 0.01 µM): 97.7%
viability, T/C [3]: 100%
viability, T/C [4]: 106%
viability, T/C (second compound 1 µM, first compound 0.000316 µM): 113%
viability, T/C (second compound 1 µM, first compound 0.001 µM): 114%
viability, T/C (second compound 1 µM, first compound 0.00316 µM): 120%
viability, T/C (second compound 1 µM, first compound 0.01 µM): 104%
viability, T/C [5]: 108%
viability, T/C [6]: 110%
viability, T/C (second compound 3.16 µM, first compound 0.000316 µM): 110%
viability, T/C (second compound 3.16 µM, first compound 0.001 µM): 115%
viability, T/C (second compound 3.16 µM, first compound 0.00316 µM): 112%
viability, T/C (second compound 3.16 µM, first compound 0.01 µM): 107%
viability, T/C [7]: 113%
viability, T/C [8]: 110%
viability, T/C (second compound 10 µM, first compound 0.000316 µM): 110%
viability, T/C (second compound 10 µM, first compound 0.001 µM): 106%
viability, T/C (second compound 10 µM, first compound 0.00316 µM): 127%
viability, T/C (second compound 10 µM, first compound 0.01 µM): 109%
viability, T/C [9]: 104%
viability, T/C [10]: 100%
